# Key:
# [1] = molecular target: T1, Dihydrofolate reductase (Mus musculus, UniProt P00375); test: Inhibitory constant for murine Wild-type dihydrofolate reductase (DHFR)
# T1 sequence (P00375 whole entry): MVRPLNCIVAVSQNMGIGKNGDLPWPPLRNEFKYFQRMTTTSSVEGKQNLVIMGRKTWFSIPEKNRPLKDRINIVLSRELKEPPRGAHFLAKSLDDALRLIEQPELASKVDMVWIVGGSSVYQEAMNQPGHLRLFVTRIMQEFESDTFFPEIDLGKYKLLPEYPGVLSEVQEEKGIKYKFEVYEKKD
# [2] = molecular target: T1, Dihydrofolate reductase; test: Inhibitory constant for F31A/F34A murine dihydrofolate reductase (DHFR)
# [3] = molecular target: T2, Dihydrofolate reductase (Mus musculus) (UniProt P00375)
# T2 sequence (whole entry): T1 sequence (P00375 whole entry)
# [4] = molecular target: T3, Dihydrofolate reductase (Mus musculus, UniProt P00375); test: Combined effect of active site mutation F31A and F34A on inhibitory effect for murine Wild-type dihydrofolate reductase (DHFR)
# [5] = molecular target: T3, Dihydrofolate reductase; test: Combined effect of active site mutation F31A and F34A on inhibitory effect for F31A/F34A murine dihydrofolate reductase (DHFR)
Structure (SMILES),Ki [1] [nM],Ki [2] [nM],Kimut/Kiwt [3],Ki·kcat/Km [4] [s⁻¹],Ki·kcat/Km [5] [s⁻¹]
COc1cc(NCc2ccc3nc(N)nc(N)c3c2C)cc(OC)c1OC [TRIMETREXATE],0.06,0.81,13.5,0.00158,0.00043
CN(Cc1cnc2nc(N)nc(N)c2n1)c1ccc(C(=O)NC(CCC(=O)NCCCCCCCCCCCCNC(=O)CCC(NC(=O)c2ccc(N(C)Cc3cnc4nc(N)nc(N)c4n3)cc2)C(=O)O)C(=O)O)cc1 (centres undefined),,212,4410,0.00126,0.112

# — ChEMBL document CHEMBL1145821, “Dihydrofolate reductase mutant with exceptional resistance to methotrexate but not to trimetrexate” (J Med Chem, 2003)
